In patent US20020123485A1, “Epoxy steroidal aldosterone antagonist and beta-adrenergic antagonist combination therapy for treatment of congestive heart failure” (priority 2000, published 2002):

What was measured:
[1] = tested on: rats with ligated left anterior descending coronary artery; assay: Assay D: myocardial infarction rat model; type: in vivo; details: combination of beta-adrenergic antagonist and eplerenone versus either component alone; six weeks
From the text: Male rats are anesthetized and the heart is exteriorized following a left sided thoracotomy. The left anterior descending coronary artery is ligated with a suture. The thorax is closed and the animal recovers. Sham animals have the suture e passed through without ligation. One week prior to the surgery, animals to undergo infarction are divided into separate groups and drug treatment is begun. […] After six weeks, systolic and diastolic blood pressure, left ventricular end diastolic pressure, left ventricular dP/dt, and heart rate are evaluated. The hearts are removed, weighed, measured and fixed in formalin. Collagen content of heart sections are evaluated using computerized image analysis of picrosirius stained sections.

[2] = tested on: patients with mild to moderate hypertension; assay: Example 19 clinical study: eplerenone versus placebo co-administered with a calcium-channel blocker; type: in vivo, human
From the text: This multicenter, randomized, double-blind, placebo-controlled, placebo run-in, parallel group trial involving a minimum of 120 randomized patients with hypertension (seated diastolic blood pressure [seDBP] ≧95 mmHg and <110 mmHg and seated systolic BP [seSBP] <180 mmHg while taking a CCB) will consist of a one- to two-week pretreatment screening period followed by a two- to four-week single-blind placebo run-in period and an 8-week double-blind treatment period. Eligible patients will be patients currently receiving a CCB as part of their antihypertensive medication. […] The dose will not be changed for patients with adequate BP control. […] If the dose has been increased at Week 2, the patient will be reassessed at Week 6. […] If BP is uncontrolled at Week 6 and the dose has been increased at Week 2 or Week 4, the patient must be withdrawn from the study. If symptomatic hypotension (i.e., lightheadedness, dizziness, or syncope associated with low BP) occurs at any time during the study, or if DBP is ≧110 mmHg or SBP is ≧180 mmHg at any time during the trial, the patient must be withdrawn. Patients will receive study medication for a total of 8 weeks.
The study will consist of a one- to two-week pretreatment screening period followed by a two- to four-week single-blind placebo run-in treatment period, prior to randomization to an eight-week double-blind treatment period.
Eligible patients will be either currently receiving a CCB alone, or receiving a CCB as part of their antihypertensive medication. […] The dose will not be changed for patients with adequate BP control. […] If the dose has been increased at Week 2, the patient will be reassessed at Week 6. The dose of study medication will not be changed for patients with adequate BP control. […] If BP is uncontrolled at Week 6 and the dose has been increased at Week 2 or Week 4, the patient must be withdrawn from the study. The dose of study medication will not be changed for patients with adequate BP control. If symptomatic hypotension (i.e., lightheadedness, dizziness, or syncope associated with low BP) occurs at any time during the study, or if DBP is ≧110 mmHg or SBP is ≧180 mmHg at any time during the study, the patient must be withdrawn. Patients will receive study medication for a total of eight weeks.
Patients will return to the clinic for evaluations at Weeks 0, 2, 4, 6, 8, and 9. Heart rate, BP, adverse events and concomitant medication will be assessed at each visit. Hematology and biochemistry evaluations and urinalysis for safety will be at Weeks 0, 8, and 9. Serum potassium levels will be determined at Weeks 0, 2, 4, 6, 8, and 9. Plasma renin, serum aldosterone, and plasma cortisol will be determined at Weeks 0 and 8. A 12-lead electrocardiogram and physical examination will be done at screening and at Week 9.
All randomized patients with at least one post-baseline assessment will be included in the efficacy analysis (intent-to-treat population). In each analysis, missing values will be imputed using the last observation carried forward (LOCF) method. The analysis of safety will focus on all randomized patients who took at least one dose of study medication (safety population).
BP evaluations will be analyzed at each visit using two-way analysis of covariance (ANCOVA) with the baseline measurement as the covariate and treatment and center as factors. The response variable will be the change from baseline. […]

progesterone receptor = target: T1, progesterone receptor (Homo sapiens, UniProt P06401); assay: binding affinity for the progesterone receptor relative to spironolactone
T1 sequence (P06401 1-933): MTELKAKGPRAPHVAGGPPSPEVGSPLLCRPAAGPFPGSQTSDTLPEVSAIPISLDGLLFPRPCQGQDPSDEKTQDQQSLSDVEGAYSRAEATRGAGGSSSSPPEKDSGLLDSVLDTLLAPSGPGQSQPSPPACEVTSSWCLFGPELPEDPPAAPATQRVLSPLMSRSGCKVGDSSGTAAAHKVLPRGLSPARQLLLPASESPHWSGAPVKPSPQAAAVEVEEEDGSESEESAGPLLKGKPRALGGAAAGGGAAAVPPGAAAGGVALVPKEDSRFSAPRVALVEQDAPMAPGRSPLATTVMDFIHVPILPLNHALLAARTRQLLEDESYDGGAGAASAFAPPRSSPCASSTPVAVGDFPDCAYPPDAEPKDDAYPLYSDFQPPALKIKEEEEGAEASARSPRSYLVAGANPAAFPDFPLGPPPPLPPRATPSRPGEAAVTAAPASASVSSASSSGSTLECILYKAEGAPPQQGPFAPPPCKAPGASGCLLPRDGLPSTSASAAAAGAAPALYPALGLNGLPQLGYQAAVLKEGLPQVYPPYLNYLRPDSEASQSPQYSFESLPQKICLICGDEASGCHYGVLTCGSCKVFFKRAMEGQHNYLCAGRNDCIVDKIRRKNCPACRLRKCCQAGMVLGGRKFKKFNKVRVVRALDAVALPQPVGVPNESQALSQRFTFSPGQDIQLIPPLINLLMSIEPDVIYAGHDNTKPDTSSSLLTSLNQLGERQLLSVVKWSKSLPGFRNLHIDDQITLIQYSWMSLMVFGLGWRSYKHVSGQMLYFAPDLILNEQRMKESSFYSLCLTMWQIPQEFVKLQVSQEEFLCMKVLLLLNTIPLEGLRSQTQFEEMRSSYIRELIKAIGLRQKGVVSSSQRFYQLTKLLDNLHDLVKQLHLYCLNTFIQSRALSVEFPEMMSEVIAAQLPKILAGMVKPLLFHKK

[3] = tested on: rats made hypertensive by renal artery clip; assay: Assay C: hypertensive rat model; type: in vivo; details: combination of beta-adrenergic antagonist and eplerenone versus either component alone; 12 and 24 weeks
From the text: Male rats are made hypertensive by placing a silver clip with an aperture of 240 microns on the left renal artery, leaving the contralateral kidney untouched. Sham controls undergo the same procedure but without attachment of the clip. One week prior to the surgery, animals to be made hypertensive are divided into separate groups and drug treatment is begun. […] After 12 and 24 weeks, systolic and diastolic blood pressure, left ventricular end diastolic pressure, left ventricular dP/dt, and heart rate are evaluated. The hearts are removed, weighed, measured and fixed in formalin. Collagen content of heart sections are evaluated using computeried image analysis of picrosirius stained sections.

[4] = tested on: myocardial fibrosis in animal models; details: cited from earlier work
[5] = CCB and eplerenone compared to CCB and placebo
[6] = eight weeks, eplerenone and CCB versus CCB and placebo

Row | Structure (SMILES) | cardiac performance [1] | active renin levels [2, 5] | aldosterone levels [2, 5] | change in mean diastolic blood pressure [2, 6] | systolic blood pressure [2, 6] | serious adverse events ([2]; eplerenone added to CCB therapy) | binding affinity for the progesterone receptor, % that of spironolactone (progesterone receptor) | cardiac performance [3] | myocardial fibrosis [4]
1 | COC(=O)[C@@H]1CC2=CC(=O)CC[C@]2(C)[C@@]23O[C@@H]2C[C@@]2(C)[C@@H](CC[C@@]24CCC(=O)O4)[C@H]13 [eplerenone, Pregn-4-ene-7,21-dicarboxylic acid, 9,11-epoxy-17-hy-droxy-3-oxo-, γ-lactone, methyl ester, (7α, 11α, 17β)-] | improvements in cardiac performance | greater increase | greater increase | greater for the dual therapy group, compared to monotherapy, but this difference did not reach statistical significance | significant reduction | no serious adverse events reported | less than 1% | improvments in cardiac performance | –
2 | CC(=O)S[C@@H]1CC2=CC(=O)CC[C@]2(C)[C@H]2CC[C@@]3(C)[C@@H](CC[C@@]34CCC(=O)O4)[C@H]12 [spironolactone] | – | – | – | – | – | – | – | – | prevents myocardial fibrosis
